From US12202790B2, “Sulfonamide derivatives having selective Nox inhibiting activity” (GLUCOX BIOTECH AB, priority 2018, dated 2025)

Columns and labels:
Human islet cells = assay: Effects on human islet cell viability; assay type: cell-based; conditions: 48 h, compound 1 μM
Method: Human islet cells were incubated at control condition, with the cytokines IL-1β (20 ng/ml)+IFN-γ (20 ng/ml), or with palmitate (1.5 mM+2% BSA)+high glucose (20 mM) (PH) for 2 days with or without Nox1 inhibitor ML-171 (2 μM), Nox2 inhibitor Phos-I2 (2 μM) or Example 17 (1 μM). Islets were photographed in an inverted fluorescence microscope and the intensities of red (PI) and blue (Bisbenzimide) signals were quantified using Image J software. Results are indicated as mean±S.E.M for 7 human islet donors.

C57B16/J mice = assay: Mouse model of acute ischemic stroke by transient middle cerebral artery occlusion (tMCAO); assay type: in vivo; conditions: 2.56 mg/kg ip, 6 times once per hour, from 1 hour after reperfusion or 30 min before reperfusion, 24 h
Method: A mouse model of acute ischemic stroke by transient middle cerebral artery occlusion (tMCAO) was used. The model has been described by Kleinschnitz C, et al. 2010, J Exp Med 203(3):513-518. C57B16/J mice were anesthetized with isoflurane (0.8% in oxygen). The animal was placed on a heating-pad, and rectal temperature was maintained at 37.0° C. using a servo-controlled rectal probe-heating pad (Cibertec, Spain). Transient cerebral ischemia was induced using an intraluminal filament technique. Using a surgical microscope (Tecnoscopio OPMI pico, Carl Zeiss, Meditec Iberia SA, Spain), a midline neck incision was made and the right common and external carotid arteries were isolated and permanently ligated. […]
After sacrificing the mice (24 h reperfusion), brains were quickly removed and cut in four 2-mm thick coronal sections using a mouse brain slice matrix (Harvard Apparatus, Spain). […] Indirect infarct volumes were calculated by volumetry (ImageJ software, National Institutes of Health, USA) according to the following equation: Vindirect (mm^3)=Vinfarct×(1−(Vih−Vch)/Vch), where the term (Vih−Vch) represents the volume difference between the ischemic hemisphere and the control hemisphere and (Vih−Vch)/Vch expresses this difference as a percentage of the control hemisphere (FIGS. 7 and 9).

Sprague-Dawley rats = assay: Streptozotocin rat model of diabetic retinopathy; assay type: in vivo; conditions: 10 mg/ml eye drops for two weeks, STZ diabetic rats
Method: Animals were maintained on a 12 h light-dark cycle, at 22-25° C. Food and water were available ad libitum. Diabetes was induced by a single dose of streptozotocin (STZ, 70 mg/kg, ip, Sigma-Aldrich, Germany) dissolved in sodium citrate (0.1M) buffer (diabetic group) after a fasting period of 8-12 hours. Animals with blood glucose levels>350 mg/d1, after 72 hours post-STZ injection were considered diabetic. Both male and female Sprague-Dawley rats were used in the study. Three experimental groups were employed, namely Control (n=6), Diabetic (n=7), and Diabetic-treated group (n=6). Example 17 (10 mg/ml) dissolved in DMSO was administered as eye drops, for two weeks, starting two (2) days after STZ administration. Animals were euthanized 24 hours after the last treatment, and their eyes were removed. […]
Antibodies raised against the macroglia marker glial fibrillary acidic protein (GFAP) were employed. Quantification using the public domain ImageJ 1.43m software was employed for the mean gray value [integrated density (fluorescence density)/delineated area] calculated and expressed as a percentage of the mean gray value of the control. Statistical analysis of the data was performed using GraphPad Prism v5.0 (San Diego, Calif., USA) and differences between groups were evaluated by one-way analysis of variance (ANOVA) with Neuman-Keuls. […]

In the case of `Cc1ccccc1CCNS(=O)(=O)c1c(Cl)cc(Br)cc1Cl` [Example 17, 4-bromo-2,6-dichloro-N-[2-(2-methylphenyl)ethyl]benzene-1-sulfonamide], the “human islet cell death with cytokines” value (Human islet cells; IL-1β (20 ng/ml)+IFN-γ (20 ng/ml)) is reported as “protected both against cytokines and high glucose+palmitate”, the “human islet cell death with high glucose+palmitate” value (Human islet cells; palmitate (1.5 mM)+high glucose (20 mM)) is reported as “protected both against cytokines and high glucose+palmitate” and the “brain damage (TTC stained coronal brain sections)” value (C57B16/J mice) is reported as “significant reduction in brain damage”. The infarct volume (C57B16/J mice; compared to control animals) was “substantial reduction of infarct volume” and the “GFAP immunoreactivity in retina” value (Sprague-Dawley rats) was “attenuated the diabetes induced increase in GFAP immunoreactivity”.
